Assay results taken from PubChem BioAssay (NCI).
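Compound exposure: 48 hours, 5 concentrations, 96-well plates. TGI: total growth inhibition.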

Assays:
Assay in all cases: NCI tumour cell line growth inhibition, 48 h
ACHN renal = test system: ACHN renal
XF 498 CNS = test system: XF 498 CNS
BT-549 breast = test system: BT-549 breast
SNB-78 CNS = test system: SNB-78 CNS
NCI-H23 lung = test system: NCI-H23 lung
NCI/ADR-RES ovarian = test system: NCI/ADR-RES ovarian
DU-145 prostate = test system: DU-145 prostate
SK-MEL-5 melanoma = test system: SK-MEL-5 melanoma
HOP-92 NSCLC = test system: HOP-92 NSCLC
DLD-1 colon = test system: DLD-1 colon
KM20L2 colon = test system: KM20L2 colon
SK-MEL-28 melanoma = test system: SK-MEL-28 melanoma
HS 578T breast = test system: HS 578T breast
SNB-75 CNS = test system: SNB-75 CNS
RPMI-8226 leukemia = test system: RPMI-8226 leukemia
MOLT-4 leukemia = test system: MOLT-4 leukemia
SR leukemia = test system: SR leukemia
HCT-116 colon = test system: HCT-116 colon
SF-295 CNS = test system: SF-295 CNS
RXF 393 renal = test system: RXF 393 renal
U251 CNS = test system: U251 CNS
HOP-62 NSCLC = test system: HOP-62 NSCLC
OVCAR-4 ovarian = test system: OVCAR-4 ovarian
PC-3 prostate = test system: PC-3 prostate
TK-10 renal = test system: TK-10 renal
HCC-2998 colon = test system: HCC-2998 colon
SF-268 CNS = test system: SF-268 CNS
UO-31 renal = test system: UO-31 renal
MALME-3M melanoma = test system: MALME-3M melanoma
MCF7 breast = test system: MCF7 breast
IGROV1 ovarian = test system: IGROV1 ovarian
K-562 leukemia = test system: K-562 leukemia
A549 NSCLC = test system: A549 NSCLC
SN12C renal = test system: SN12C renal
OVCAR-5 ovarian = test system: OVCAR-5 ovarian
LOX IMVI melanoma = test system: LOX IMVI melanoma
M14 melanoma = test system: M14 melanoma
NCI-H460 lung = test system: NCI-H460 lung
T-47D breast = test system: T-47D breast
786-0 renal = test system: 786-0 renal
A498 renal = test system: A498 renal
HCT-15 colon = test system: HCT-15 colon
MDA-MB-435 = test system: MDA-MB-435
MDA-N = test system: MDA-N
HOP-18 NSCLC = test system: HOP-18 NSCLC
NCI-H226 lung = test system: NCI-H226 lung
NCI-H522 lung = test system: NCI-H522 lung
DMS 273 small cell lung = test system: DMS 273 small cell lung
MDA-MB-231 breast = test system: MDA-MB-231 breast
HT29 colon = test system: HT29 colon
HL-60(TB) leukemia = test system: HL-60(TB) leukemia
CAKI-1 renal = test system: CAKI-1 renal
UACC-257 melanoma = test system: UACC-257 melanoma
EKVX NSCLC = test system: EKVX NSCLC
UACC-62 melanoma = test system: UACC-62 melanoma
RXF-631 renal = test system: RXF-631 renal
CCRF-CEM leukemia = test system: CCRF-CEM leukemia
OVCAR-8 ovarian = test system: OVCAR-8 ovarian
DMS 114 small cell lung = test system: DMS 114 small cell lung
SK-OV-3 ovarian = test system: SK-OV-3 ovarian
SW-620 colon = test system: SW-620 colon
OVCAR-3 ovarian = test system: OVCAR-3 ovarian
SF-539 CNS = test system: SF-539 CNS
SK-MEL-2 melanoma = test system: SK-MEL-2 melanoma
KM12 colon = test system: KM12 colon
COLO 205 colon = test system: COLO 205 colon
M19-MEL melanoma = test system: M19-MEL melanoma
LXFL 529 NSCLC = test system: LXFL 529 NSCLC
SNB-19 CNS = test system: SNB-19 CNS
P388/ADR leukemia = test system: P388/ADR leukemia
SN12K1 renal = test system: SN12K1 renal
P388 leukemia = test system: P388 leukemia

Compound `CCC(=O)OCOc1ccc(/C=C2\CCC(CN(C)C)C2=O)cc1` (stereo not drawn) has a TGI (ACHN renal) of 20.4 µM, a TGI (XF 498 CNS) of 4.15 µM and a TGI (BT-549 breast) of 13.6 µM. The TGI (SNB-78 CNS) was 31.5 µM, the TGI (NCI-H23 lung) was 15.8 µM and the TGI (NCI/ADR-RES ovarian) was 6.78 µM. For the same compound, the TGI (DU-145 prostate) was 30.6 µM, the TGI (SK-MEL-5 melanoma) was 26.6 µM and the TGI (HOP-92 NSCLC) was 29.5 µM. For the same compound, the TGI (DLD-1 colon) was 5.54 µM, the TGI (KM20L2 colon) was 32.6 µM and the TGI (SK-MEL-28 melanoma) was 9.73 µM. For the same compound, the TGI (HS 578T breast) was > 79 µM, the TGI (SNB-75 CNS) was 27.6 µM and the TGI (RPMI-8226 leukemia) was > 23.3 µM. It also gave a TGI (MOLT-4 leukemia) of 8.07 µM, a TGI (SR leukemia) of 9.25 µM and a TGI (HCT-116 colon) of 18.2 µM. It also gave a TGI (SF-295 CNS) of 20.5 µM, a TGI (RXF 393 renal) of 9.55 µM and a TGI (U251 CNS) of 26.2 µM. The TGI (HOP-62 NSCLC) was 33.5 µM, the TGI (OVCAR-4 ovarian) was 15.3 µM and the TGI (PC-3 prostate) was 27.6 µM. It also gave a TGI (TK-10 renal) of 22.2 µM, a TGI (HCC-2998 colon) of 18.5 µM and a TGI (SF-268 CNS) of 22.5 µM. The TGI (UO-31 renal) was 19 µM, the TGI (MALME-3M melanoma) was 10.6 µM and the TGI (MCF7 breast) was 10.1 µM. The TGI (IGROV1 ovarian) was 16.3 µM, the TGI (K-562 leukemia) was 4.66 µM and the TGI (A549 NSCLC) was 40.3 µM. The TGI (SN12C renal) was 7.56 µM, the TGI (OVCAR-5 ovarian) was 31.6 µM and the TGI (LOX IMVI melanoma) was 4.1 µM. For the same compound, the TGI (M14 melanoma) was 9.23 µM, the TGI (NCI-H460 lung) was 32.7 µM and the TGI (T-47D breast) was 9 µM. It also gave a TGI (786-0 renal) of 6.2 µM, a TGI (A498 renal) of 30.6 µM and a TGI (HCT-15 colon) of 9.97 µM. It also gave a TGI (MDA-MB-435) of 10.6 µM, a TGI (MDA-N) of 16.5 µM and a TGI (HOP-18 NSCLC) of 28.8 µM. It also gave a TGI (NCI-H226 lung) of 31.8 µM, a TGI (NCI-H522 lung) of 4.41 µM and a TGI (DMS 273 small cell lung) of 15.2 µM. The TGI (MDA-MB-231 breast) was > 19.9 µM, the TGI (HT29 colon) was 25.7 µM and the TGI (HL-60(TB) leukemia) was 5.51 µM. It also gave a TGI (CAKI-1 renal) of 11.5 µM, a TGI (UACC-257 melanoma) of 10.6 µM and a TGI (EKVX NSCLC) of 37.9 µM. For the same compound, the TGI (UACC-62 melanoma) was 13.6 µM, the TGI (RXF-631 renal) was > 61.2 µM and the TGI (CCRF-CEM leukemia) was > 23.1 µM. The TGI (OVCAR-8 ovarian) was 11.2 µM, the TGI (DMS 114 small cell lung) was 56.4 µM and the TGI (SK-OV-3 ovarian) was 29.1 µM. For the same compound, the TGI (SW-620 colon) was 7.38 µM, the TGI (OVCAR-3 ovarian) was 8.29 µM and the TGI (SF-539 CNS) was 17.3 µM. It also gave a TGI (SK-MEL-2 melanoma) of 27.9 µM, a TGI (KM12 colon) of 13 µM and a TGI (COLO 205 colon) of 15.8 µM. The TGI (M19-MEL melanoma) was 11.1 µM, the TGI (LXFL 529 NSCLC) was 9.27 µM and the TGI (SNB-19 CNS) was 32.5 µM.
With `COc1cc2c(cc1OC)C(Cl)C(c1ccc(Br)cc1)=C2Cl` (stereo not drawn) the TGI (ACHN renal) was 21.3 µM, the TGI (BT-549 breast) was 5.44 µM and the TGI (SNB-78 CNS) was 32.6 µM. The TGI (NCI-H23 lung) was 23.8 µM, the TGI (NCI/ADR-RES ovarian) was 30.9 µM and the TGI (DU-145 prostate) was 23.8 µM. The TGI (SK-MEL-5 melanoma) was 28.6 µM, the TGI (HOP-92 NSCLC) was 36.2 µM and the TGI (DLD-1 colon) was 27.6 µM. The TGI (KM20L2 colon) was 41.3 µM, the TGI (SK-MEL-28 melanoma) was 30.7 µM and the TGI (HS 578T breast) was 59.3 µM. The TGI (SNB-75 CNS) was 27.7 µM, the TGI (RPMI-8226 leukemia) was 15.2 µM and the TGI (MOLT-4 leukemia) was 49.2 µM. For the same compound, the TGI (SR leukemia) was > 100 µM, the TGI (HCT-116 colon) was 22.7 µM and the TGI (SF-295 CNS) was 30.5 µM. The TGI (RXF 393 renal) was 24.6 µM, the TGI (U251 CNS) was 24.8 µM and the TGI (HOP-62 NSCLC) was 35.4 µM. For the same compound, the TGI (OVCAR-4 ovarian) was 63.5 µM, the TGI (PC-3 prostate) was 21.6 µM and the TGI (TK-10 renal) was 23.6 µM. For the same compound, the TGI (HCC-2998 colon) was 27.4 µM, the TGI (SF-268 CNS) was 29.4 µM and the TGI (P388/ADR leukemia) was > 100 µM. For the same compound, the TGI (UO-31 renal) was 17.1 µM, the TGI (MALME-3M melanoma) was 28 µM and the TGI (MCF7 breast) was 21.2 µM. For the same compound, the TGI (IGROV1 ovarian) was 31.8 µM, the TGI (K-562 leukemia) was 41.9 µM and the TGI (A549 NSCLC) was 33 µM. For the same compound, the TGI (SN12C renal) was 25.4 µM, the TGI (OVCAR-5 ovarian) was 31 µM and the TGI (LOX IMVI melanoma) was 24.4 µM. For the same compound, the TGI (M14 melanoma) was 23.3 µM, the TGI (SN12K1 renal) was 29.4 µM and the TGI (NCI-H460 lung) was 25.8 µM. For the same compound, the TGI (T-47D breast) was 15.1 µM, the TGI (786-0 renal) was 16.7 µM and the TGI (A498 renal) was 33.1 µM. It also gave a TGI (HCT-15 colon) of 23.6 µM, a TGI (MDA-MB-435) of 17.4 µM and a TGI (MDA-N) of 13.6 µM. The TGI (HOP-18 NSCLC) was 56.4 µM, the TGI (NCI-H226 lung) was > 55.1 µM and the TGI (NCI-H522 lung) was 12.8 µM. It also gave a TGI (DMS 273 small cell lung) of 31.6 µM, a TGI (MDA-MB-231 breast) of 21.6 µM and a TGI (HT29 colon) of 28.5 µM. For the same compound, the TGI (P388 leukemia) was > 100 µM, the TGI (HL-60(TB) leukemia) was > 67.3 µM and the TGI (CAKI-1 renal) was 32 µM. It also gave a TGI (UACC-257 melanoma) of 31.6 µM, a TGI (EKVX NSCLC) of 17.2 µM and a TGI (UACC-62 melanoma) of 50.6 µM. For the same compound, the TGI (CCRF-CEM leukemia) was > 100 µM, the TGI (OVCAR-8 ovarian) was 26.1 µM and the TGI (DMS 114 small cell lung) was 23.3 µM. The TGI (SK-OV-3 ovarian) was 45.9 µM, the TGI (SW-620 colon) was 23.4 µM and the TGI (OVCAR-3 ovarian) was 24.1 µM. For the same compound, the TGI (SF-539 CNS) was 26.1 µM, the TGI (SK-MEL-2 melanoma) was 22.5 µM and the TGI (KM12 colon) was 34.6 µM. It also gave a TGI (COLO 205 colon) of 29.1 µM, a TGI (M19-MEL melanoma) of 36 µM and a TGI (SNB-19 CNS) of 32 µM.
